Test results from patent US7087634B2, “Cyclic AMP-specific phosphodiesterase inhibitors” (ICOS Corporation, priority 1999, dated 2006).
Like-named read-outs stand apart in the source and are kept apart here.

Key:
[1] = tested on: TNFα release from human peripheral blood lymphocytes; experiment: Lipopolysaccharide-stimulated TNFα release from human peripheral blood lymphocytes; format: cell-based; settings: Lymphocyte
Protocol: The compounds of structural formulae (I) and (II) were tested for an ability to reduce TNFα secretions in human peripheral blood lymphocytes. The ability of a compound to reduce TNFα secretion is related to the EC50 value for the compound (i.e., the effective concentration of the compound capable of inhibiting 50% of the total TNFα).
To assess the ability of a compound to reduce TNFα secretion in human peripheral blood lymphocytes (PBL), the following tests were performed.
Heparinized blood (approximately 30 mL) drawn from human volunteers was mixed 1:1 with Dulbecco's modified phosphate-buffered saline. This mixture was mixed 1:1 with HISTOPAQUE® and centrifuged at 1,500 rpm at room temperature without braking in the swinging bucket of a Beckman model TJ6 centrifuge. Erythrocytes were centrifuged to the bottom of the tubes, and serum remained at the surface of the tubes. A layer containing lymphocytes sedimented between the serum and HISTOPAQUE® layers, and was removed by aspiration to a fresh tube. The cells were quantified and adjusted to […] and a 100 μL aliquot is placed into the wells of a 96 well plate. Test compounds and RPMI media (Gibco/BRL Life Sciences) are added to each of the wells 15 minutes prior to addition of bacterial LPS ([…]). The mixture was allowed to incubate for 20 hours at 37° C. in a humidified chamber. The cells then were separated by centrifuging at 800 rpm for 5 minutes at room temperature. An aliquot of 180 μL of supernatant was transferred to a new plate for determination of TNFα concentration. TNFα protein in the cell supernatant fluids was measured using a commercially available enzyme-linked immunosorbent assay (ELISA) (CYTOSCREEN® Immunoassay Kit from Biosource International).
(§1) The cell-based assay provided the following results for various compounds of the present invention. The EC50. values (i.e., effective concentration of the compound capable of inhibiting 50% of the total TNFα) illustrate the ability of the present compounds to inhibit LPS-stimulated TNFα release from human PBL.
as §1, with “various pyrazole” for “various”, “EC50” for “EC50.”, “concentrations” for “concentration”, “peripheral blood lymphocytes.” for “PBL.”

[2] = biological target: T1, human recombinant PDE4 (Homo sapiens, UniProt Q07343); experiment: Inhibition of human recombinant PDE4 (charcoal separation PDE assay); format: biochemical
T1 construct: made in house; host or cells: Saccharomyces cerevisiae BJ2-54
T1 sequence (Q07343 whole entry): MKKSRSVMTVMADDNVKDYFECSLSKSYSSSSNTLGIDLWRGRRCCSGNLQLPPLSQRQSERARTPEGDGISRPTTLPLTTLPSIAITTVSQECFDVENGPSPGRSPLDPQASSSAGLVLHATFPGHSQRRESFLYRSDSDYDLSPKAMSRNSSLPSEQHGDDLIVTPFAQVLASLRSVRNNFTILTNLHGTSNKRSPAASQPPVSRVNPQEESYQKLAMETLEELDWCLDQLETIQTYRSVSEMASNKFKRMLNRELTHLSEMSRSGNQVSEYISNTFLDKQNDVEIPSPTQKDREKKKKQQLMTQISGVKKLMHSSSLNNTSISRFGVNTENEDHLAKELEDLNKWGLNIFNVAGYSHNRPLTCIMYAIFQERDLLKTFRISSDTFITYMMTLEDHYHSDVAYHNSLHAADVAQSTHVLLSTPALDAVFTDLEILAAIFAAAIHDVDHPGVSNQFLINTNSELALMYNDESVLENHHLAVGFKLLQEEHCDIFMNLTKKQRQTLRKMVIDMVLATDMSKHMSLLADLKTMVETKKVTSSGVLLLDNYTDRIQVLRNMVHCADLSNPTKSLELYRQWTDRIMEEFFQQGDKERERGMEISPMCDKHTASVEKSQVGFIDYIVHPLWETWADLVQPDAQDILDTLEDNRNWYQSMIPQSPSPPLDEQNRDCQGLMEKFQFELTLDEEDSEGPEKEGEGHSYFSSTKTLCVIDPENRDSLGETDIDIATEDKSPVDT
Protocol: The compounds of structural formula (I) were tested for an ability to inhibit PDE4. […] The IC50 value for compounds of structural formula (I) were determined using human recombinant PDE4.
Phosphodiesterase activity of the preparations was determined as follows. […] In this assay, PDE activity converts [32P]cAMP or [32P]cGMP to the corresponding [32P]5′-AMP or [32P]5′-GMP in proportion to the amount of PDE activity present. The [32P]5′-AMP or [32P]5′-GMP then was quantitatively converted to free [32P]phosphate and unlabeled adenosine or guanosine by the action of snake venom 5′-nucleotidase. […] The assay was performed at 30° C. in a 100 μL reaction mixture containing (final concentrations) 40 mM Tris HCl (pH 8.0), 1 μM ZnSO4, 5 mM MgCl2, and 0.1 mg/mL bovine serum albumin (BSA). Alternatively, in assays assessing PDE1-specific activity, incubation mixtures further incorporated the use of 0.1 mM CaCl2 and 10 μg/mL calmodulin. PDE enzyme was present in quantities that yield <30% total hydrolysis of substrate (linear assay conditions). The assay was initiated by addition of substrate (1 mM [32P]cAMP or cGMP), and the mixture was incubated for 12 minutes. Seventy-five (75) μg of Crotalus atrox venom then was added, and the incubation was continued for 3 minutes (15 minutes total). The reaction was stopped by addition of 200 μL of activated charcoal (25 mg/mL suspension in 0.1 M NaH2PO4, pH 4). After centrifugation (750×g for 3 minutes) to sediment the charcoal, a sample of the supernatant was taken for radioactivity determination in a scintillation counter and the PDE activity was calculated.

[3] = tested on: recombinant human PDE4; settings: background, reported value; read-out: reported IC50 with respect to recombinant human PDE4; cited from earlier work
[4] = Homo sapiens, read-out: PBL/TNFα EC50 (μM)
[5] = structure table, read-out: PDE4 IC50
[6] = table with PBL/TNFα, read-out: PDE4 IC50
[7] = PDE4 IC50 (μM), structure table
[8] = PDE4 IC50 (μM), table with PBL/TNFα
[9] = LPS-stimulated TNFα release from human PBL, read-out: PBL/TNFα EC50

SMILES | IC50 [2, 5] [µM] | other results
CCOC(=O)c1c(C)nn(-c2ccccc2)c1C [Example 3, 3,5-dimethyl-1-phenyl-1H-pyrazole-4-carboxylic acid ethyl ester] | 0.31 | EC50 [1, 4]: 1.8 µM; IC50 [2, 6]: 0.31 µM
Cc1nn(-c2ccccc2)c(C)c1C=O [Example 28, 3,5-Dimethyl-1-phenyl-1H-pyrazole-4-carboxaldehyde] | 18 | –
CCOC(=O)c1c(C)nn(-c2ccc(N=Cc3ccccc3O)cc2)c1C [Example 38] | – | EC50 [1, 4]: 1 µM; IC50 [2, 7]: 0.4 µM; IC50 [2, 8]: 0.4 µM
CCOC(=O)c1cnn(-c2ccc([N+](=O)[O-])cc2)c1C(F)(F)F [Example 30, 1-(4-Nitrophenyl)-5-trifluoromethyl-1H-pyrazole-4-carboxylic acid ethyl ester] | 45.4 | –
CCOC(=O)c1c(C)nn(-c2ccc([N+](=O)[O-])cn2)c1C [Example 17, 3,5-dimethyl-1-(5-nitropyridin-2-yl)-1H-pyrazole-4-carboxylic acid ethyl ester] | 57.5 | –
CCOC(=O)c1c(C)nn(-c2ccc(N=Cc3ccc(OC)cc3)cc2)c1C [Example 39] | – | EC50 [1, 9]: 1.3 µM; IC50 [2, 7]: 0.69 µM; IC50 [2, 8]: 0.69 µM
CCOC(=O)c1c(C)nn(-c2ccc(NS(=O)(=O)c3ccc(OC)cc3)cc2)c1C [Example 13, 1-[4-(4-methoxybenzenesulfonylamino)phenyl]-3,5-dimethyl-1H-pyrazole-4-carboxylic acid ethyl ester] | – | IC50 [2, 7]: 1.88 µM
COC(=O)c1cnn(-c2cc(C(F)(F)F)cc(C)n2)c1C(=O)C=CN(C)C [Example 29, 5-(3-Dimethylaminoacryloyl)-1-(6-methyl-4-trifluoromethylpyridin-2-yl)-1H-pyrazole-4-carboxylic acid methyl ester] | 37 | –
CCOC(=O)c1c(C)nn(-c2ccc(N)cc2)c1C [Example 11, 3,5-dimethyl-1-(4-aminophenyl)-1H-pyrazole-4-carboxylic acid ethyl ester] | 0.3 | EC50 [1, 9]: 1 µM; IC50 [2, 6]: 0.3 µM
CCOC(=O)c1cnn(-c2c(Cl)cc(Cl)cc2Cl)c1COC [Example 35, 5-Methoxymethyl-1-(2,4,6-trichlorophenyl)-1H-pyrazole-4-carboxylic acid ethyl ester] | 131 | –
CCOC(=O)c1c(C)nn(-c2ccc(NCc3ccccc3O)cc2)c1C [Example 40] | – | EC50 [1, 4]: 6.2 µM; IC50 [2, 7]: 0.92 µM; IC50 [2, 8]: 0.92 µM
CCOC(=O)c1c(C)nn(-c2ncccc2N)c1C [Example 12, 1-(3-aminopyridin-2-yl)-3,5-dimethyl-1H-pyrazole-4-carboxylic acid ethyl ester] | 0.94 | EC50 [1, 4]: 2.6 µM; IC50 [2, 6]: 0.94 µM
COC(=O)N1CC(c2ccc(OC)c(OC3CCCC3)c2)C(C)(C(C)=O)C1 (centres unmarked) | – | IC50 [3]: ~2 nM
Cc1nn(-c2ccc(N)cc2)c(C)c1C(=O)O [Example 18, 1-(4-aminophenyl)-3,5-dimethyl-1H-pyrazole-4-carboxylic acid] | 175 | –
CCOC(=O)c1c(C)nn(-c2ccccc2N)c1C [Example 6, 3,5-dimethyl-1-(2-aminophenyl)-1H-Pyrazole-4-carboxylic acid ethyl ester] | 1.13 | –
CCOC(=O)c1c(C)nn(-c2cccc(N)c2)c1C [Example 9, 1-(3-aminophenyl)-3,5-dimethyl-1H-pyrazole-4-carboxylic acid ethyl ester] | 1.03 | EC50 [1, 4]: 1.9 µM; IC50 [2, 6]: 1 µM

SMILES | IC50 [2, 5] [µM] | other results
CCOC(=O)c1cn(-c2ccccn2)nc1C [Example 26, 3-methyl-1-pyridin-2-yl-1H-pyrazole-4-carboxylic acid ethyl ester] | 3.59 | –
Cc1nn(-c2ncccc2[N+](=O)[O-])c(C)c1C(=O)O [Example 16, 3,5-dimethyl-1-(3-nitropyridin-2-yl)-1H-pyrazole-4-carboxylic acid] | 47.4 | –
C/C(=N\O)c1cnn(-c2cc(C(F)(F)F)cc(C)n2)c1C [Example 32, 1-[5-Methyl-1-(6-methyl-4-trifluoromethyl-pyridin-2-yl)-1H-pyrazol-4-yl]-ethanone oxime] | 67.4 | –
Cc1nn(-c2ccccc2)c(C)c1C(=O)Nc1ccncc1 [Example 34, 3,5-Dimethyl-1-phenyl-1H-pyrazole-4-carboxylic acid pyridin-4-ylamide] | 97.9 | –
CCOC(=O)c1cnn(-c2ncc(C(F)(F)F)cc2Cl)c1C [Example 31, 1-(3-Chloro-5-trifluoromethylpyridin-2-yl)-5-methyl-1H-pyrazole-4-carboxylic acid ethyl ester] | 63 | –
COC(=O)c1cnn(-c2cc(C(F)(F)F)cc(C)n2)c1C(C)=O [Example 33, 5-Acetyl-1-(6-methyl-4-trifluoromethylpyridin-2-yl)-1H-pyrazole-4-carboxylic acid methyl ester] | 88.2 | –
Cc1ccc(OC(=O)c2c(C)nn(-c3ccccc3)c2C)cc1 [Example 15, 3,5-dimethyl-1-phenyl-1H-pyrazole-4-carboxylic acid p-tolyl ester] | 36.5 | –
CCOC(=O)c1c(C)nn(-c2ccc([N+](=O)[O-])cn2)c1C [Example 7, 3,5-dimethyl-1-(5-nitropyridin-2-yl)-1H-pyrazole-4-carboxylic acid ethyl ester] | – | IC50 ([2]; read-out: PDE4 IC50, structure table): 12.9 µM
CCOC(=O)c1c(C)nn(C2CCCCC2)c1C [Example 19, 1-cyclohexyl-3,5-dimethyl-1H-pyrazole-4-carboxylic acid ethyl ester] | 0.053 | EC50 [1, 9]: 0.52 µM; IC50 [2, 6]: 0.053 µM
Cc1nn(-c2ccccc2)c(C)c1C(=O)Nc1ccccc1 [Example 36, 3,5-Dimethyl-1-phenyl-1H-pyrazole-4-carboxylic acid phenylamide] | 142 | –
CCOC(=O)c1c(C)nn(-c2ncccc2[N+](=O)[O-])c1C [Example 10, 3,5-dimethyl-1-(3-nitropyridin-2-yl)-1H-pyrazole-4-carboxylic acid ethyl ester] | 0.2 | EC50 [1, 9]: 2 µM; IC50 [2, 6]: 0.2 µM
CCOC(=O)c1c(C)nn(-c2ccc(NC(=O)C(C)(C)C)cc2)c1C [Example 14, 1-[4-(2,2-dimethylpropionylamino)phenyl]-3,5-dimethyl-1H-pyrazole-4-carboxylic acid ethyl ester] | 6.39 | –
CCOC(=O)c1c(C)nn(-c2ccc(C)cc2)c1C [Example 4, 3,5-dimethyl-1-p-tolyl-1H-pyrazole-4-carboxylic acid ethyl ester] | 3.94 | –
COC(=O)c1cnn(-c2ccccn2)c1C(C)=O [Example 37, 5-Acetyl-1-pyridin-2-yl-1H-pyrazole-4-carboxylic acid methyl ester] | 181 | –
CCOC(=O)c1c(C)nn(-c2ccccc2[N+](=O)[O-])c1C [Example 5, 3,5-dimethyl-1-(2-nitrophenyl)-1H-pyrazole-4-carboxylic acid ethyl ester] | 0.65 | –
CCOC(=O)c1cnn(-c2ccc(N)cc2)c1C(F)(F)F [Example 27, 1-(4-aminophenyl)-5-trifluoromethyl-1H-pyrazole-4-carboxylic acid ethyl ester] | 3.61 | –
